Laboratory results published in US20260158011A1 (Achieve Life Sciences, Inc., priority 2023, published 2026).
Marks after values point to notes of the source that are not given here.

System: adult e-cigarette users
Description: A second measurement consisted of biochemically verified continuous vaping abstinence at any time during treatment, with vaping abstinence at Week 3-6 or Week 6-9 for of cytisinicline treatment vs placebo. 7-day point prevalence rates were compared for vaping abstinence (Week 2 to 12) (FIG. 62). An additional measurement included reduction in daily vaping as measured by cotinine, where cytisinicline treatment vs placebo for a reduction in nicotine vaping using weekly quantitative cotinine levels from Week 2 to Week 12. Safety was assessed by adverse effects and serious adverse effects, considering number, severity, and attribution to study drug.

[1] = by Preferred Term table, 12 Weeks, N = 106, Safety Set
[2] = overall summary, 12 Weeks, N = 106, Safety Set
[3] = possibly, probably or definitely related, 12 Weeks, N = 106, Safety Set

O=c1cccc2n1C[C@@H]1CNC[C@H]2C1 [cytisine, (−)-Cytisine]
TEAE Migraine, subjects n (12 Weeks, N = 106, Safety Set): 1 n
TEAE Musculoskeletal chest pain, subjects % (12 Weeks, N = 106, Safety Set): (0.9) %
TEAE Musculoskeletal chest pain, subjects n (12 Weeks, N = 106, Safety Set): 1 n
TEAE Nasal congestion, subjects (12 Weeks, N = 106, Safety Set): 0 n (%)
TEAE Nasopharyngitis, subjects (12 Weeks, N = 106, Safety Set): 0 n (%)
TEAE Nausea, subjects % (12 Weeks, N = 106, Safety Set): (4.7) %
TEAE Nausea, subjects n (12 Weeks, N = 106, Safety Set): 5 n
TEAE Neck pain, subjects % (12 Weeks, N = 106, Safety Set): (1.9) %
TEAE Neck pain, subjects n (12 Weeks, N = 106, Safety Set): 2 n
TEAE Oropharyngeal pain, subjects % (12 Weeks, N = 106, Safety Set): (1.9) %
TEAE Oropharyngeal pain, subjects n (12 Weeks, N = 106, Safety Set): 2 n
TEAE Otitis media, subjects (12 Weeks, N = 106, Safety Set): 0 n (%)
TEAE Outcome Fatal (12 Weeks, N = 106, Safety Set): 0 n (%)/Events
TEAE Outcome Not recovered/Not resolved, Events (12 Weeks, N = 106, Safety Set): 23 Events
TEAE Outcome Not recovered/Not resolved, subjects (12 Weeks, N = 106, Safety Set): 14 (13.2) n (%)
TEAE Outcome Recovered/Resolved with sequelae (12 Weeks, N = 106, Safety Set): 0 n (%)/Events
TEAE Outcome Recovered/Resolved, Events (12 Weeks, N = 106, Safety Set): 93 Events
TEAE Outcome Recovered/Resolved, subjects (12 Weeks, N = 106, Safety Set): 47 (44.3) n (%)
TEAE Outcome Recovering/Resolving, Events (12 Weeks, N = 106, Safety Set): 3 Events
TEAE Outcome Recovering/Resolving, subjects (12 Weeks, N = 106, Safety Set): 3 (2.8) n (%)
TEAE Pain in jaw, subjects (12 Weeks, N = 106, Safety Set): 0 n (%)
TEAE Panic attack, subjects % (12 Weeks, N = 106, Safety Set): (1.9) %
TEAE Panic attack, subjects n (12 Weeks, N = 106, Safety Set): 2 n
TEAE Pelvic pain, subjects % (12 Weeks, N = 106, Safety Set): (0.9) %
TEAE Pelvic pain, subjects n (12 Weeks, N = 106, Safety Set): 1 n
TEAE Post viral fatigue syndrome, subjects (12 Weeks, N = 106, Safety Set): 0 n (%)
TEAE Pregnancy, subjects (12 Weeks, N = 106, Safety Set): 0 n (%)
TEAE Procedural anxiety, subjects % (12 Weeks, N = 106, Safety Set): (0.9) %
TEAE Procedural anxiety, subjects n (12 Weeks, N = 106, Safety Set): 1 n
TEAE Pyrexia, subjects (12 Weeks, N = 106, Safety Set): 0 n (%)
TEAE Relationship Definite, Events (12 Weeks, N = 106, Safety Set): 3 Events
TEAE Relationship Definite, subjects (12 Weeks, N = 106, Safety Set): 3 (2.8) n (%)
TEAE Relationship Not Related (first line, total of Not Related and Unlikely), Events (12 Weeks, N = 106, Safety Set): 65 Events
TEAE Relationship Not Related (first line, total of Not Related and Unlikely), subjects (12 Weeks, N = 106, Safety Set): 38 (35.8) n (%)
TEAE Relationship Not Related (second line, sub-category), Events (12 Weeks, N = 106, Safety Set): 55 Events
TEAE Relationship Not Related (second line, sub-category), subjects (12 Weeks, N = 106, Safety Set): 32 (30.2) n (%)
TEAE Relationship Possible, Events (12 Weeks, N = 106, Safety Set): 29 Events
TEAE Relationship Possible, subjects (12 Weeks, N = 106, Safety Set): 17 (16.0) n (%)
TEAE Relationship Probable, Events (12 Weeks, N = 106, Safety Set): 22 Events
TEAE Relationship Probable, subjects (12 Weeks, N = 106, Safety Set): 16 (15.1) n (%)
TEAE Relationship Unlikely, Events (12 Weeks, N = 106, Safety Set): 10 Events
TEAE Relationship Unlikely, subjects (12 Weeks, N = 106, Safety Set): 9 (8.5) n (%)
TEAE Restless legs syndrome, subjects % (12 Weeks, N = 106, Safety Set): (0.9) %
TEAE Restless legs syndrome, subjects n (12 Weeks, N = 106, Safety Set): 1 n
TEAE Sensitive skin, subjects % (12 Weeks, N = 106, Safety Set): (0.9) %
TEAE Sensitive skin, subjects n (12 Weeks, N = 106, Safety Set): 1 n
TEAE Severity Mild, Events (12 Weeks, N = 106, Safety Set): 92 Events
TEAE Severity Mild, subjects (12 Weeks, N = 106, Safety Set): 50 (47.2) n (%)
TEAE Severity Moderate, Events (12 Weeks, N = 106, Safety Set): 26 Events
TEAE Severity Moderate, subjects (12 Weeks, N = 106, Safety Set): 16 (15.1) n (%)
TEAE Severity Severe, Events (12 Weeks, N = 106, Safety Set): 1 Events
TEAE Severity Severe, subjects (12 Weeks, N = 106, Safety Set): 1 (0.9) n (%)
TEAE Sinus congestion, subjects % (12 Weeks, N = 106, Safety Set): (0.9) %
TEAE Sinus congestion, subjects n (12 Weeks, N = 106, Safety Set): 1 n
TEAE Sinusitis, subjects (12 Weeks, N = 106, Safety Set): 0 n (%)
TEAE Stress, subjects % (12 Weeks, N = 106, Safety Set): (0.9) %
TEAE Stress, subjects n (12 Weeks, N = 106, Safety Set): 1 n
TEAE Thirst, subjects % (12 Weeks, N = 106, Safety Set): (0.9) %
TEAE Thirst, subjects n (12 Weeks, N = 106, Safety Set): 1 n
TEAE Tooth extraction, subjects (12 Weeks, N = 106, Safety Set): 0 n (%)
TEAE Trismus, subjects (12 Weeks, N = 106, Safety Set): 0 n (%)
TEAE Upper respiratory tract infection, subjects % (12 Weeks, N = 106, Safety Set): (5.7) %
TEAE Upper respiratory tract infection, subjects n (12 Weeks, N = 106, Safety Set): 6 n
TEAE Urinary tract infection, subjects % (12 Weeks, N = 106, Safety Set): (0.9) %
TEAE Urinary tract infection, subjects n (12 Weeks, N = 106, Safety Set): 1 n
TEAE Vasectomy, subjects % (12 Weeks, N = 106, Safety Set): (0.9) %
TEAE Vasectomy, subjects n (12 Weeks, N = 106, Safety Set): 1 n
TEAE Vomiting, subjects % (12 Weeks, N = 106, Safety Set): (0.9) %
TEAE Vomiting, subjects n (12 Weeks, N = 106, Safety Set): 1 n
TEAE Wisdom teeth removal, subjects % (12 Weeks, N = 106, Safety Set): (0.9) %
TEAE Wisdom teeth removal, subjects n (12 Weeks, N = 106, Safety Set): 1 n
Adverse event Abnormal dreams, % (Cytisinicline 12 wks (N = 106)): 12.3%
Adverse event Anxiety, % (Cytisinicline 12 wks (N = 106)): 9.4%
Adverse event Fatigue, % (Cytisinicline 12 wks (N = 106)): 5.7%
Adverse event Headache, % (Cytisinicline 12 wks (N = 106)): 6.6%
Adverse event Insomnia, % (Cytisinicline 12 wks (N = 106)): 10.4%
Adverse event Nausea, % (Cytisinicline 12 wks (N = 106)): 4.7%
Adverse event Upper respiratory tract infection, % (Cytisinicline 12 wks (N = 106)): 5.7%
At Least One TEAE (Cytisinicline 12 wks (N = 106)): 54 (50.9) n (%)
Subjects with At Least One TEAE, % (Cytisinicline 12 wks (N = 106)): 50.9%
TEAE relationship: Not Related (Cytisinicline 12 wks (N = 106)): 39 (35.8) n (%)
TEAE relationship: Related (Cytisinicline 12 wks (N = 106)): 30 (28.3) n (%)
Treatment-emergent adverse events: Mild (Cytisinicline 12 wks (N = 106)): 50 (47.2) n (%)
Treatment-emergent adverse events: Moderate (Cytisinicline 12 wks (N = 106)): 16 (15.1) n (%)
Treatment-emergent adverse events: Severe (Cytisinicline 12 wks (N = 106), abnormal dreams): 1 (0.9)* n (%)
At Least One TEAE, subjects % [1]: (50.9) %
At Least One TEAE, subjects n [1]: 54 n
Rate of adverse events (cytisinicline arm, 12 weeks): 50.9%
Adverse event COVID-19, % (human, in vivo): 3 (2.8) %
TEAE COVID-19, subjects % (human, in vivo): (2.8) %
TEAE COVID-19, subjects n (human, in vivo): 3 n
TEAE Influenza, subjects % (human, in vivo): (1.9) %
TEAE Influenza, subjects n (human, in vivo): 2 n
At Least One TEAE, Events [2]: 119 Events
At Least One TEAE, subjects [2]: 54 (50.9) n (%)
TEAE Relationship Related, Events [3]: 54 Events
TEAE Relationship Related, subjects [3]: 30 (28.3) n (%)
